According to PMC9681850, “Structural basis of synthetic agonist activation of the nuclear receptor REV-ERB” (Nature Communications, 2022):
Where “and” joins values, the source holds several entries; their conditions need not be identical. Identical values can stand only once.

Experiments:
[1] = target: T1, full length human REV-ERBα (Homo sapiens, UniProt P20393); assay: cell-based two-hybrid luciferase reporter assay (REV-ERBα-FL/GAL4-DBD + NCoR-Vp16, HEK UAS-luc cells); details: HEK293 UAS-luc cells
T1 construct: expressed in transfected cells; host or cells: HEK293 cells with stably integrated GAL4-UAS luciferase reporter

BMAL1 in HepG2 cells = assay: expression of BMAL1 by qPCR; type: cell-based, human; design: key: Bmal1 expression normalized to Ppia; details: 5 μM, 24 h, single replicates (n = 4)
Description: We next determined whether STL1267 can regulate characterized REV-ERB modulated genes in cell lines expressing REV-ERB naturally. Five micromolar doses of both drugs were used in cell-based experiments from this point on. REV-ERB is an established component of the core molecular clock repressing the expression of core clock gene Bmal1[6],[27] as well as others[28],[29]. […] In skeletal muscle, REV-ERB agonism increases the expression of a wide variety of genes important in mitochondrial function.
The human hepatocellular carcinoma cell line, HepG2 cells (ATCC HB-8065), were cultured in 10% FBS 1% L-Glu MEM at 37 °C in a humidified atmosphere of 5% CO2. Prior to RNA extraction cells were treated with either DMSO or REV-ERB agonist for 24 h. The C2C12 proliferating mouse myoblast cells (ATCC, CRL-1772) were cultured in 10% FBS DMEM at 37 °C in a humidified atmosphere of 5% CO2. Prior to RNA extraction cells were treated with either DMSO or REV-ERB agonist for 24 h. Prior to crystal violet cytotoxicity assay, cells were treated with either DMSO or REV-ERB agonist for 48 h.
Mouse tissue was homogenized using a bullet blender. DNA/protein was removed by phase separation using BCP/chloroform. The supernatant (RNA containing fraction) was collected, and RNA was precipitated using isopropanol. The RNA pellets were washed with 75% ethanol and resolubilized in RNAse free water. […]

CAR = CAR (Homo sapiens, UniProt Q14994); assay: CAR assay; type: cell-based
[2] = system: 43 targets (GPCRs, ion channels, transporters, and other drug targets); assay: NIMH PDSP radioligand displacement panel; type: binding; details: of the 43 targets assessed
Description: We assessed the specificity of STL1267 using both in house nuclear receptor Gal4-NR reporter assays and the NIMH Psychoactive Drug Screening Program (PDSP) assays. We assessed the specificity of STL1267 in the PDSP’s radioligand displacement assays, screening for binding to off-target GPCRs, ion channels, transporters, and other drug targets (Table S1). Of the 43 targets assessed in this panel, we observed no detectable binding in 41 of them. […] Additional assessment in serotonin transporter and kappa opioid receptor activity in a functional assay may be warranted to determine absolute specificity. […]
(§1) Receptor RLBA Ki Receptor activity
(§2) Suppl ementary Tabl e 1. Speci fi ci ty of STL1267. […]

5-HT1B = target: T2, 5-HT1B (Homo sapiens, UniProt P28222); assay: PDSP radioligand binding assay; details: read-out: RLBA Ki
T2 construct: NIMH Psychoactive Drug Screening Program (assay performed there)
Description: as §1, §2

5-HT1E = target: T3, 5-HT1E (Homo sapiens, UniProt P28566); assay: PDSP radioligand binding assay; details: read-out: RLBA Ki
T3 construct: NIMH Psychoactive Drug Screening Program (assay performed there)
Description: as §1, §2

5-HT2B = target: T4, 5-HT2B (Homo sapiens, UniProt P41595); assay: PDSP radioligand binding assay; details: read-out: RLBA Ki
T4 construct: NIMH Psychoactive Drug Screening Program (assay performed there)
Description: as §1, §2

5-HT3 = target: T5, 5-HT3 (Homo sapiens, UniProt P46098); assay: PDSP radioligand binding assay; details: read-out: RLBA Ki
T5 construct: NIMH Psychoactive Drug Screening Program (assay performed there)
Description: as §1, §2

5-HT5A = target: T6, 5-HT5A (Homo sapiens, UniProt P47898); assay: PDSP radioligand binding assay; details: read-out: RLBA Ki
T6 construct: NIMH Psychoactive Drug Screening Program (assay performed there)
Description: as §1, §2

5-HT6 = target: T7, 5-HT6 (Homo sapiens, UniProt P50406); assay: PDSP radioligand binding assay; details: read-out: RLBA Ki
T7 construct: NIMH Psychoactive Drug Screening Program (assay performed there)
Description: as §1, §2

Alpha1B = target: T8, Alpha1B (Homo sapiens, UniProt P35368); assay: PDSP radioligand binding assay; details: read-out: RLBA Ki
T8 construct: NIMH Psychoactive Drug Screening Program (assay performed there)
Description: as §1, §2

Alpha1D = target: T9, Alpha1D (Homo sapiens, UniProt P25100); assay: PDSP radioligand binding assay; details: read-out: RLBA Ki
T9 construct: NIMH Psychoactive Drug Screening Program (assay performed there)
Description: as §1, §2

Alpha2B = target: T10, Alpha2B (Homo sapiens, UniProt P18089); assay: PDSP radioligand binding assay; details: read-out: RLBA Ki
T10 construct: NIMH Psychoactive Drug Screening Program (assay performed there)
Description: as §1, §2

Alpha2C = target: T11, Alpha2C (Homo sapiens, UniProt P18825); assay: PDSP radioligand binding assay; details: read-out: RLBA Ki
T11 construct: NIMH Psychoactive Drug Screening Program (assay performed there)
Description: as §1, §2

Beta1 = target: T12, Beta1 (Homo sapiens, UniProt P08588); assay: PDSP radioligand binding assay; details: read-out: RLBA Ki
T12 construct: NIMH Psychoactive Drug Screening Program (assay performed there)
Description: as §1, §2

Beta2 = Beta2 (Homo sapiens, UniProt P07550); assay: PDSP radioligand binding assay; details: read-out: RLBA Ki
Description: as §1, §2

Beta3 = Beta3 (Homo sapiens, UniProt P13945); assay: PDSP radioligand binding assay; details: read-out: RLBA Ki
Description: as §1, §2

D2 = D2 (Homo sapiens, UniProt P14416); assay: PDSP radioligand binding assay; details: read-out: RLBA Ki
Description: as §1, §2

D3 = D3 (Homo sapiens, UniProt P35462); assay: PDSP radioligand binding assay; details: read-out: RLBA Ki
Description: as §1, §2

D4 = D4 (Homo sapiens, UniProt P21917); assay: PDSP radioligand binding assay; details: read-out: RLBA Ki
Description: as §1, §2

D5 = D5 (Homo sapiens, UniProt P21918); assay: PDSP radioligand binding assay; details: read-out: RLBA Ki
Description: as §1, §2

DAT = DAT (Homo sapiens, UniProt Q01959); assay: PDSP radioligand binding assay; details: read-out: RLBA Ki
Description: as §1, §2

DOR = DOR (Homo sapiens, UniProt P41143); assay: PDSP radioligand binding assay; details: read-out: RLBA Ki
Description: as §1, §2

GABAA = assay: PDSP radioligand binding assay; details: read-out: RLBA Ki
Description: as §1, §2

H2 = H2 (Homo sapiens, UniProt P25021); assay: PDSP radioligand binding assay; details: read-out: RLBA Ki
Description: as §1, §2

M2 = M2 (Homo sapiens, UniProt P08172); assay: PDSP radioligand binding assay; details: read-out: RLBA Ki
Description: as §1, §2

M5 = M5 (Homo sapiens, UniProt P08912); assay: PDSP radioligand binding assay; details: read-out: RLBA Ki
Description: as §1, §2

PBR = PBR (Rattus norvegicus, UniProt P16257); assay: PDSP radioligand binding assay; details: read-out: RLBA Ki
Description: as §1, §2

T1 sequence (P20393 whole entry, the tested form may be a part): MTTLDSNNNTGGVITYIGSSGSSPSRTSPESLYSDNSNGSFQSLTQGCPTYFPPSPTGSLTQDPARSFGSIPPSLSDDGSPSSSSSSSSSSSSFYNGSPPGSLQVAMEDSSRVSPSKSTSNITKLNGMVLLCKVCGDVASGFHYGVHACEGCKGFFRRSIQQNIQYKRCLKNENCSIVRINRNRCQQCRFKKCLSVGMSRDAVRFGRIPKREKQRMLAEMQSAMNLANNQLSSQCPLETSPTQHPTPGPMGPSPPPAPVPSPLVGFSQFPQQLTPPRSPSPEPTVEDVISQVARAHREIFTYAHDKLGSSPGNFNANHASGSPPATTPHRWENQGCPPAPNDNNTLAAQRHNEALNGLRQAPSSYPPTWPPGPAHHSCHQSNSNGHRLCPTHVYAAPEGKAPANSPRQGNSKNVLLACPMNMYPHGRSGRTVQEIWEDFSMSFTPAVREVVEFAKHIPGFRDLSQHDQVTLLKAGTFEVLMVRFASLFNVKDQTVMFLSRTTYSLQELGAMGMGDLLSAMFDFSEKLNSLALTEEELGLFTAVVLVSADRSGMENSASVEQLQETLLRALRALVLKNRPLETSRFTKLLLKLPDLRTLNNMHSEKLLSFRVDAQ
T1 sequence (O75376 whole entry partner, the tested form may be a part): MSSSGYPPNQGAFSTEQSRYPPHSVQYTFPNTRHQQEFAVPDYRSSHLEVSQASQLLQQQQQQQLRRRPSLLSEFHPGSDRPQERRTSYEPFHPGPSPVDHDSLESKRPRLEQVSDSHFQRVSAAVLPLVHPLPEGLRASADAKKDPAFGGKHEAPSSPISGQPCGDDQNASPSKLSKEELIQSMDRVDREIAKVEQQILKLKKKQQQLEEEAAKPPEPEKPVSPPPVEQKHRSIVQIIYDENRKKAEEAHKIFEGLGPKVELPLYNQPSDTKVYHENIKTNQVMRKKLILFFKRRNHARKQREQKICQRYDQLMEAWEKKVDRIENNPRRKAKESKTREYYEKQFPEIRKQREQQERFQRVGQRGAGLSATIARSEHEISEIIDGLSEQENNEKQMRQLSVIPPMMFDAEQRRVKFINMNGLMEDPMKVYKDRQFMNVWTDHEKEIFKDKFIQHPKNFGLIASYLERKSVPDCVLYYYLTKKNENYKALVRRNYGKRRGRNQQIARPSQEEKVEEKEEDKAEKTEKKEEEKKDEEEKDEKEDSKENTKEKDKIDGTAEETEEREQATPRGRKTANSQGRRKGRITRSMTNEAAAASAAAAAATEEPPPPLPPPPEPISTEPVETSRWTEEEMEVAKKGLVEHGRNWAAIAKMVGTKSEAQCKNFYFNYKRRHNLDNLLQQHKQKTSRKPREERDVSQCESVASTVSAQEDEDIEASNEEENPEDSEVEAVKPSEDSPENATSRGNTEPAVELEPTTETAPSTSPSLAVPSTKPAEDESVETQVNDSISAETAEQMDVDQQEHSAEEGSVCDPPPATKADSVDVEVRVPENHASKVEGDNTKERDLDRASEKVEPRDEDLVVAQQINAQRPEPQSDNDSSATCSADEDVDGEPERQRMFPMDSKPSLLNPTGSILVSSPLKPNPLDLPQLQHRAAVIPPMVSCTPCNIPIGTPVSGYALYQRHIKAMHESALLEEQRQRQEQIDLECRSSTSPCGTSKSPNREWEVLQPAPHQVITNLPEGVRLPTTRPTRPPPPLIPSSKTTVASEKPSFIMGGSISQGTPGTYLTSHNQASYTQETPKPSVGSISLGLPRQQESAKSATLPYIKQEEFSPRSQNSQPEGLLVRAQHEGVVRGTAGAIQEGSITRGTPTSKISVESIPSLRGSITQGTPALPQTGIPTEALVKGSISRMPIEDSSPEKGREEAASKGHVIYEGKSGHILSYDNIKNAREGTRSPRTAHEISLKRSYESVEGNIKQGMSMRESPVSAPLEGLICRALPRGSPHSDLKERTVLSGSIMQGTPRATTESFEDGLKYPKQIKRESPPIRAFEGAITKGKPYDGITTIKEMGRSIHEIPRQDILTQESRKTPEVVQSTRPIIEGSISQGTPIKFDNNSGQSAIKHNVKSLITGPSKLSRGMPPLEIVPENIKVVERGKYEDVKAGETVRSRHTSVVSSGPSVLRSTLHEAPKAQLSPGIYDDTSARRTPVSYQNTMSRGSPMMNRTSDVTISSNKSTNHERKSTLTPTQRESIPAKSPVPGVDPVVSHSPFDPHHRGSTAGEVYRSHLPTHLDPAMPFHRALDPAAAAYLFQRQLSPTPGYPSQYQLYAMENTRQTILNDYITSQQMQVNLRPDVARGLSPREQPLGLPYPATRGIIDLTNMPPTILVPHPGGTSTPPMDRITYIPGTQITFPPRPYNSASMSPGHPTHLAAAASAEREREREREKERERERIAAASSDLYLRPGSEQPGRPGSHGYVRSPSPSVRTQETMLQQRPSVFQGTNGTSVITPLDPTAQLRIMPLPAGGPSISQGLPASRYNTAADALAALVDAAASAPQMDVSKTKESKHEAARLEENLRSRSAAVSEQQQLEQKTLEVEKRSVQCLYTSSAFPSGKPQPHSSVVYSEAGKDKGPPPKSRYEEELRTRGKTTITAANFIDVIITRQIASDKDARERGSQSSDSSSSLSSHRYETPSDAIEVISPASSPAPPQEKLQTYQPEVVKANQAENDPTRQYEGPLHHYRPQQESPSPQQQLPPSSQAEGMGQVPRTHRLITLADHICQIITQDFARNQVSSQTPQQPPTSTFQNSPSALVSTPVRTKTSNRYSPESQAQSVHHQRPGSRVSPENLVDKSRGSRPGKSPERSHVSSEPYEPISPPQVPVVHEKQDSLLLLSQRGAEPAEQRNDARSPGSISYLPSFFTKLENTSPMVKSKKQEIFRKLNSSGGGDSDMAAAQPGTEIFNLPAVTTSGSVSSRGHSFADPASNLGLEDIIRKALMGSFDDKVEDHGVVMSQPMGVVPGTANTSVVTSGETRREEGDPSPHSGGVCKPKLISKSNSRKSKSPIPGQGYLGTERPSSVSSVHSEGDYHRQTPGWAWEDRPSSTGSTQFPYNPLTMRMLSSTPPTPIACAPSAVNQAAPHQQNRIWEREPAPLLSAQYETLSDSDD
Beta2, sequence (P07550 whole entry): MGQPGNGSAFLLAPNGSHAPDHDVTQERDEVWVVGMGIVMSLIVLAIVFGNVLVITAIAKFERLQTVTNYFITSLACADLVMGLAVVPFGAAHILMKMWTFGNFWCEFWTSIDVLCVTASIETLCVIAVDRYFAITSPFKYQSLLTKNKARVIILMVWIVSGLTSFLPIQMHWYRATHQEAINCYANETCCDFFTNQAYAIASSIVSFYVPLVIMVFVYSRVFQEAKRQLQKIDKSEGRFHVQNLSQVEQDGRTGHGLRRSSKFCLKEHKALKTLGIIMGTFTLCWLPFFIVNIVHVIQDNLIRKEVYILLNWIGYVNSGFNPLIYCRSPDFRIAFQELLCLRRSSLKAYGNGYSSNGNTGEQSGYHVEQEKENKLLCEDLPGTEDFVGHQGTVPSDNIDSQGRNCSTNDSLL
D3, sequence (P35462 whole entry): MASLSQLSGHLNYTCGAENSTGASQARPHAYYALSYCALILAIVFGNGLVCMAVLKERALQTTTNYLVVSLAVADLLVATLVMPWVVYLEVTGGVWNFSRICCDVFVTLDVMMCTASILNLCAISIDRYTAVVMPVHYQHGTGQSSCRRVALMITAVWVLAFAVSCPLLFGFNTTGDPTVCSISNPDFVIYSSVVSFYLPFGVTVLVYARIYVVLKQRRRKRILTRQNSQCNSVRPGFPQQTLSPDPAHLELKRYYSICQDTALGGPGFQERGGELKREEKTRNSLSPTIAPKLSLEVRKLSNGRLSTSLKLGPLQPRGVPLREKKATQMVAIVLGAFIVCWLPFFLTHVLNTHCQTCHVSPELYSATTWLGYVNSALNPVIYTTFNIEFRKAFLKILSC
T9 sequence (P25100 whole entry): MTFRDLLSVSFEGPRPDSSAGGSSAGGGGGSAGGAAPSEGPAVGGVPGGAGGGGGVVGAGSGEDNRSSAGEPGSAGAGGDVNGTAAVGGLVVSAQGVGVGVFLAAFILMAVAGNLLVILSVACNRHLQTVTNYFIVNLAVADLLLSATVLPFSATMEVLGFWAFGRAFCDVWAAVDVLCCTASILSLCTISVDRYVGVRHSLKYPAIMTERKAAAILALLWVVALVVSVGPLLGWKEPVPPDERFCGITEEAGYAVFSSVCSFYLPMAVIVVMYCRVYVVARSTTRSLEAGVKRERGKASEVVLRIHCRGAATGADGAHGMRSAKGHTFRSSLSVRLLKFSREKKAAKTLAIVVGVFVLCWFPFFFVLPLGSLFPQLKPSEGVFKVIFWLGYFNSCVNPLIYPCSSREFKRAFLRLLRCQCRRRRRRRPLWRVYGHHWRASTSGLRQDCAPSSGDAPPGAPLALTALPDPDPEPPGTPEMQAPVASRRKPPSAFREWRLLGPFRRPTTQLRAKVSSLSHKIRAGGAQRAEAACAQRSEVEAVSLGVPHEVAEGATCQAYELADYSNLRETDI
D2, sequence (P14416 whole entry): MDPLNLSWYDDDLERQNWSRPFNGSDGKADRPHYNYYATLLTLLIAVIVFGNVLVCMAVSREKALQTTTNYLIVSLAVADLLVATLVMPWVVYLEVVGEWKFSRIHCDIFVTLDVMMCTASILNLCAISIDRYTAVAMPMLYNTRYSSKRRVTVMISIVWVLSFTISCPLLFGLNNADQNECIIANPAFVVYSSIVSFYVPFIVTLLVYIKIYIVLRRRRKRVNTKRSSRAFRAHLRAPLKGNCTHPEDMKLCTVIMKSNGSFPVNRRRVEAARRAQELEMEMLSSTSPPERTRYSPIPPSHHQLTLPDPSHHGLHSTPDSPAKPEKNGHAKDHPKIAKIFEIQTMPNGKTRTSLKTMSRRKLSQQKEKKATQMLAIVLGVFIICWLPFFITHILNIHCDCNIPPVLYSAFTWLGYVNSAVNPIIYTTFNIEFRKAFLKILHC

maximal efficacy for recruitment of NCoR-VP16 vs. SR9009 [1]: ~ 8 fold | EC50 ([1]; 24 h, read-out: EC50, recruitment of NCoR-Vp16): 1.8 µM | activity at CAR (CAR): did not have activity | number of targets with no detectable binding [2]: 41 | Ki (5-HT1B): > 10 µM | Ki (5-HT1E): > 10 µM | Ki (5-HT2B): > 10 µM | Ki (5-HT3): > 10 µM | Ki (5-HT5A): > 10 µM | Ki (5-HT6): > 10 µM | Ki (Alpha1B): > 10 µM | Ki (Alpha1D): > 10 µM | Ki (Alpha2B): > 10 µM | Ki (Alpha2C): > 10 µM | Ki (Beta1): > 10 µM | Ki (Beta2): > 10 µM | Ki (Beta3): > 10 µM | Ki (D2): > 10 µM | Ki (D3): > 10 µM | Ki (D4): > 10 µM | Ki (D5): > 10 µM | Ki (DAT): > 10 µM | Ki (DOR): > 10 µM | Ki (GABAA): > 10 µM | Ki (H2): > 10 µM | Ki (M2): > 10 µM | Ki (M5): > 10 µM | Ki (PBR): > 10 µM
SMILES: Clc1nnc2ccc(Oc3ccccc3-c3ccccc3)nn12 [STL1267]
Bmal1 (Fig. 2c) expression (BMAL1 in HepG2 cells): attenuated the expression and 0.5800 and 0.6760 and 0.6148 and 0.7607
